From patent US20180110762A1, “Compositions Methods for Treating Chronic Kidney Disease” (Merck Sharp & Dohme Corp, priority 2015, published 2018)

Key:
[1] = target: T1, Human recombinant integrin αvβ1 (Homo sapiens, UniProt P05556+P06756); assay: Solid phase receptor assay, αvβ1 (fibronectin); format: binding
T1 construct: purchased R&D Systems
Experimental: The assay was performed according to the method described in International Patent Publication WO 2014/015054 A1 “Beta Amino Acid Derivatives As Integrin Antagonists.” Briefly, 96-well plates were coated overnight with purified fibronectin or vitronectin (R&D Systems) in TBS+ buffer (25 mM Tris 7.4, 137 mM NaCl, 2.7 mM KCl, 1 mM CaCl2, 1 mM MgCl2, 1 mM MnCl2). Compound A was added at different concentrations to recombinant human integrin proteins (R&D Systems) reconstituted in TBS+/0.1% bovine serum albumin, and 50 μL of this mixture were added to the empty wells of the coated plate and incubated for 1-2 hours. After 3 washes, 50 μL of biotinylated antibody (R&D Systems) in TBS+/0.1% bovine serum albumin were added. The procedure continued with three more washes, addition of 50 μL of streptavidin-conjugated horseradish peroxidase (R&D Systems), and incubation for 20 minutes. After 3 more washes, 50 μL of tetramethylbenzidine (TMB) substrate (SIGMA) were added and plates were read after 20 min by colorimetric detection at 650 nm wavelength in an EnVision Multilabel Plate Reader (Perkin Elmer). The concentrations of fibronectin used were: 2 μg/mL for the α5β1 assay and 5 μg/mL for the αvβ1 assay. The concentrations of vitronectin used were: 1 μg/mL for the αvβ3 assay and 0.25 μg/mL for the αvβ5 assay. […]

[2] = test system: male obese ZSF1 rats (diabetic nephropathy model); assay: ZSF1 rat study: plasma triglyceride and cholesterol; format: in vivo; conditions: for Plasma Triglyceride / plasma cholesterol levels: obese ZSF1 rats; for plasma cholesterol levels: in mg/dL (unit assumed)
Experimental: (§1) The effects of Compound A (“A”) on renal function, plasma triglycerides, plasma cholesterol, kidney collagen I, kidney collagen III, renal histology, glomerular filtration rate, fibrosis score, and mRNA gene expression (profibrotic genes and integrin β3) were evaluated in male obese ZSF1 rats (a hybrid F1 of Zucker diabetic fatty rat and spontaneously hypertensive heart failure rat; a diabetic nephropathy model) when administered as in-feed for 28 weeks. Sixty obese male ZSF1 rats were randomized to five groups: Obese control (n=12), Compound A 60 mpk (n=12), Compound A 200 mpk (n=12), Compound A 400 mpk (n=12), Enalapril 10 mpk (n=12); Eight lean male ZSF1 rats were used for normal control. Renal functional changes were monitored by blood and urine analysis following in-feed dosing for 28 weeks. Compound exposure was also monitored during the study.

[3] = test system: male obese ZSF1 rats (diabetic nephropathy model); assay: ZSF1 rat study: renal fibrosis score (histology); format: in vivo; conditions: for renal fibrosis score (expressed as 0-5): obese ZSF1 rats, week 28
Experimental: as §1
Upon completion of the study, animals were euthanized and blood and organs (kidney, heart, aorta, eyes, and lumber vertebrae (LV1-LV5) and left femur) were collected for histology assessment (including EM for the kidneys) or DEXA scan (lumber vertebrae and left femur). Kidney tissues were fixed in 10% formalin and then paraffin embedded. Tissue sections were stained with hematoxylin and eosin (H&E), periodic acid-Schiff (PAS), and Masson's trichrome and evaluated under light microscope. The severity of histopathologic changes in renal tubules, interstitium, vasculature, and glomeruli were graded on a 1 to 5 scale corresponding to minimal, mild, moderate, marked, and severe as described previously. Sections from both kidneys were examined. Collagen deposition in the kidney was graded on a 1 to 5 scale corresponding to minimal, mild, moderate, marked, and severe, based on the blue stained area size and intensity.

T1 sequence (P06756 31-992 limits assumed): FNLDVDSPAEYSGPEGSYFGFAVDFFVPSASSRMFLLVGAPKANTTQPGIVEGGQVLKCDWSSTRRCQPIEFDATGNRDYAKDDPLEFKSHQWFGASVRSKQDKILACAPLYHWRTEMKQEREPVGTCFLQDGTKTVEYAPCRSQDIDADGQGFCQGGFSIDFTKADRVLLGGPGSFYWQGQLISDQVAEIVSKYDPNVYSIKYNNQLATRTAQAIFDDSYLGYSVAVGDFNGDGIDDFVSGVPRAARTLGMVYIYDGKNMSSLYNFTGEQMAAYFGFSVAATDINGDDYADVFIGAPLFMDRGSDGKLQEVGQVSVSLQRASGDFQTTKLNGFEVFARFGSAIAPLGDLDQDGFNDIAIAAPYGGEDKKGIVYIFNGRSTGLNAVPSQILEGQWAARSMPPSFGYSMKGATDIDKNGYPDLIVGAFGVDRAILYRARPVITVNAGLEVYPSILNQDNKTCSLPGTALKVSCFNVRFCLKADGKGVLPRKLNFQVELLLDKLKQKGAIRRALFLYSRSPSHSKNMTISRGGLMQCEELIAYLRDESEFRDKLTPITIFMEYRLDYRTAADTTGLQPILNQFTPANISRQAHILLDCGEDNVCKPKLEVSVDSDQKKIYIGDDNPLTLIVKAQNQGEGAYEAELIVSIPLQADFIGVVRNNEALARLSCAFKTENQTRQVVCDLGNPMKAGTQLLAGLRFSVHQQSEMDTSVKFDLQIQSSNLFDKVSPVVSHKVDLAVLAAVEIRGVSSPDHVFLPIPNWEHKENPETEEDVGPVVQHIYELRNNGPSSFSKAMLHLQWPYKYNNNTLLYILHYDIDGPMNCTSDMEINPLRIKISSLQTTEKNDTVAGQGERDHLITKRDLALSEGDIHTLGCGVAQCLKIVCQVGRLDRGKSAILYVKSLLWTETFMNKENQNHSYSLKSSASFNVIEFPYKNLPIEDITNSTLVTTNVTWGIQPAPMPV
T1 sequence (P05556 21-728 limits assumed): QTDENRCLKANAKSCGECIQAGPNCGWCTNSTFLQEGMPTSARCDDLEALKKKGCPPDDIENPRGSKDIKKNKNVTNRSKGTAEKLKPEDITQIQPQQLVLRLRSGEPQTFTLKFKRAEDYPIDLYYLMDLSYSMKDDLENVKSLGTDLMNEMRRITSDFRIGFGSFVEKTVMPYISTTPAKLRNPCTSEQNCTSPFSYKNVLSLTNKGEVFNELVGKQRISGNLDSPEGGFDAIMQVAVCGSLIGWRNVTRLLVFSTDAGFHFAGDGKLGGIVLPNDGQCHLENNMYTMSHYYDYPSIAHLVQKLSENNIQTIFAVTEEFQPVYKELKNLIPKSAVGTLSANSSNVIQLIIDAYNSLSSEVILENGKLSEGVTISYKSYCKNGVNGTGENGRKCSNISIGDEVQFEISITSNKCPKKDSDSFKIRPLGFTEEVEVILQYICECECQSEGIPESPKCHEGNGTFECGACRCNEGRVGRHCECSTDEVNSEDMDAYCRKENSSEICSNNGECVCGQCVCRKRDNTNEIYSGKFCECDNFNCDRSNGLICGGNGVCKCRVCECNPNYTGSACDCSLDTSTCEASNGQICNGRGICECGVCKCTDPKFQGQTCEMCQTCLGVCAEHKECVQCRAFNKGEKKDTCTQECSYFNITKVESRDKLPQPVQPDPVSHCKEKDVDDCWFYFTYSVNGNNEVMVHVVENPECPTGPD

IC50 ([1]; αvβ1, first of two experiments): 2.1 nM | IC50 ([1]; αvβ1, second of two experiments): 0.9 nM
SMILES: COc1ccc([C@H](CC(=O)O)N2CCN(CCCc3ccc4c(n3)NCCC4)C2=O)cn1 [Compound A, 3-{2-Oxo-3-[3-(5,6,7,8-tetrahydro-[1,8]naphthyridin-2-yl)-propyl]imidazolidin-1-yl}-3 (S)-(6-methoxy-pyridin-3-yl)-propionic acid]
effect on plasma triglyceride levels ([2]; 200 mpk at week 4 and 400 mpk at week 16 and 28): significantly decreased | effect on plasma cholesterol levels ([2]; 200 mpk at week 28 and 400 mpk at week 16, 21, 24, and 28): significantly decreased | plasma TG and cholesterol ([2]; high doses, obese ZSF-1 rats vs untreated obese ZSF-1 rats (summary)): improvement of plasma TG and cholesterol | Plasma Triglyceride ([2]; 60 mpk in-feed, week 2): 2535.3 ± 170.6 mg/dL | plasma cholesterol levels ([2]; 60 mpk in-feed, week 2): 229.3 ± 9.6 | Plasma Triglyceride ([2]; 60 mpk in-feed, week 4): 2807.5 ± 143.4 mg/dL | plasma cholesterol levels ([2]; 60 mpk in-feed, week 4): 262.7 ± 10.5 | Plasma Triglyceride ([2]; 60 mpk in-feed, week 6): 2873.2 ± 116.5 mg/dL | plasma cholesterol levels ([2]; 60 mpk in-feed, week 6): 261.2 ± 9.9 | Plasma Triglyceride ([2]; 60 mpk in-feed, week 8): 3187.9 ± 157.1 mg/dL | plasma cholesterol levels ([2]; 60 mpk in-feed, week 8): 289.1 ± 9.5 | Plasma Triglyceride ([2]; 60 mpk in-feed, week 12): 3138.5 ± 168.9 mg/dL | plasma cholesterol levels ([2]; 60 mpk in-feed, week 12): 315.4 ± 13.2 | Plasma Triglyceride ([2]; 60 mpk in-feed, week 16): 3120.3 ± 191.6 mg/dL | plasma cholesterol levels ([2]; 60 mpk in-feed, week 16): 357.8 ± 13.3 | Plasma Triglyceride ([2]; 60 mpk in-feed, week 21): 2933.4 ± 317.5 mg/dL | plasma cholesterol levels ([2]; 60 mpk in-feed, week 21): 392.9 ± 20.6 | Plasma Triglyceride ([2]; 60 mpk in-feed, week 24): 3093.3 ± 355.2 mg/dL | plasma cholesterol levels ([2]; 60 mpk in-feed, week 24): 448.0 ± 23.8 | Plasma Triglyceride ([2]; 60 mpk in-feed, week 28): 3218.7 ± 427.5 mg/dL | plasma cholesterol levels ([2]; 60 mpk in-feed, week 28): 495.7 ± 29.4 | Plasma Triglyceride ([2]; 60 mpk in-feed, week −2): 2046.8 ± 72.0 mg/dL | plasma cholesterol levels ([2]; 60 mpk in-feed, week −2): 192.0 ± 4.5 | Plasma Triglyceride ([2]; 200 mpk in-feed, week 2): 2111.1 ± 123.5 mg/dL | plasma cholesterol levels ([2]; 200 mpk in-feed, week 2): 205.4 ± 7.8 | Plasma Triglyceride ([2]; 200 mpk in-feed, week 4): 2592.4 ± 206.8 mg/dL | plasma cholesterol levels ([2]; 200 mpk in-feed, week 4): 243.5 ± 9.2 | Plasma Triglyceride ([2]; 200 mpk in-feed, week 6): 2534.6 ± 185.5 mg/dL | plasma cholesterol levels ([2]; 200 mpk in-feed, week 6): 233.7 ± 9.1 | Plasma Triglyceride ([2]; 200 mpk in-feed, week 8): 3325.3 ± 189.8 mg/dL | plasma cholesterol levels ([2]; 200 mpk in-feed, week 8): 289.3 ± 9.3 | Plasma Triglyceride ([2]; 200 mpk in-feed, week 12): 3188.3 ± 191.4 mg/dL | plasma cholesterol levels ([2]; 200 mpk in-feed, week 12): 315.9 ± 11.2 | Plasma Triglyceride ([2]; 200 mpk in-feed, week 16): 2930.4 ± 217.5 mg/dL | plasma cholesterol levels ([2]; 200 mpk in-feed, week 16): 346.8 ± 12.1 | Plasma Triglyceride ([2]; 200 mpk in-feed, week 21): 2717.2 ± 199.8 mg/dL | plasma cholesterol levels ([2]; 200 mpk in-feed, week 21): 366.7 ± 14.1 | Plasma Triglyceride ([2]; 200 mpk in-feed, week 24): 2923.8 ± 267.3 mg/dL | plasma cholesterol levels ([2]; 200 mpk in-feed, week 24): 415.1 ± 19.6 | Plasma Triglyceride ([2]; 200 mpk in-feed, week 28): 2632.8 ± 269.6 mg/dL | plasma cholesterol levels ([2]; 200 mpk in-feed, week 28): 451.9 ± 23.6 | Plasma Triglyceride ([2]; 200 mpk in-feed, week −2): 1965.3 ± 83.6 mg/dL | plasma cholesterol levels ([2]; 200 mpk in-feed, week −2): 189.5 ± 6.6 | Plasma Triglyceride ([2]; 400 mpk in-feed, week 2): 2415.9 ± 119.5 mg/dL | plasma cholesterol levels ([2]; 400 mpk in-feed, week 2): 229.8 ± 6.0 | Plasma Triglyceride ([2]; 400 mpk in-feed, week 4): 2763.1 ± 146.9 mg/dL | plasma cholesterol levels ([2]; 400 mpk in-feed, week 4): 252.3 ± 5.3 | Plasma Triglyceride ([2]; 400 mpk in-feed, week 6): 2715.6 ± 111.4 mg/dL | plasma cholesterol levels ([2]; 400 mpk in-feed, week 6): 238.9 ± 6.6 | Plasma Triglyceride ([2]; 400 mpk in-feed, week 8): 3185.0 ± 191.8 mg/dL | plasma cholesterol levels ([2]; 400 mpk in-feed, week 8): 278.8 ± 9.5 | Plasma Triglyceride ([2]; 400 mpk in-feed, week 12): 3086.5 ± 121.3 mg/dL | plasma cholesterol levels ([2]; 400 mpk in-feed, week 12): 306.4 ± 7.0 | Plasma Triglyceride ([2]; 400 mpk in-feed, week 16): 2648.9 ± 167.8 mg/dL | plasma cholesterol levels ([2]; 400 mpk in-feed, week 16): 304.6 ± 11.1 | Plasma Triglyceride ([2]; 400 mpk in-feed, week 21): 2523.9 ± 220.7 mg/dL | plasma cholesterol levels ([2]; 400 mpk in-feed, week 21): 351.4 ± 13.8 | Plasma Triglyceride ([2]; 400 mpk in-feed, week 24): 2439.5 ± 162.4 mg/dL | plasma cholesterol levels ([2]; 400 mpk in-feed, week 24): 374.7 ± 12.8 | Plasma Triglyceride ([2]; 400 mpk in-feed, week 28): 2215.7 ± 179.3 mg/dL | plasma cholesterol levels ([2]; 400 mpk in-feed, week 28): 391.2 ± 14.7 | Plasma Triglyceride ([2]; 400 mpk in-feed, week −2): 2211.5 ± 117.2 mg/dL | plasma cholesterol levels ([2]; 400 mpk in-feed, week −2): 195.5 ± 5.5 | effect on renal fibrosis score vs Obese Vehicle ([3]; 400 mpk at week 28): significantly decreased | markers of renal fibrosis ([3]; ZSF-1 rats vs untreated obese ZSF-1 rats (summary)): improvement in markers of renal fibrosis | renal fibrosis score (expressed as 0-5) ([3]; 200 mpk in-feed): 2.7 ± 0.1 | renal fibrosis score (expressed as 0-5) ([3]; 400 mpk in-feed): 2.2 ± 0.1
